2 substances from patent US11090355B2, “Compositions and methods for the treatment of neurodamage” (BIOINCEPT, LLC, priority 2015, dated 2021) can be followed below.

Series [1] deals with PDI (Homo sapiens, UniProt P07237). Briefly: binding to PDI, sPIF compared to scrambled PIF. The source says:
(FIG. 2). […] (FIG. 3). […] (FIG. 4). […] Thus dependent on the target Kv1.3 or IDE the mutated PIF-1 can have a target-specific effect which can also translate to diverse biological activity.

Series [2] deals with EAE. Briefly: PLP139-151 induced EAE, episodic treatment, paralysis scores. Particulars: for MCE (mean clinical score at end) / MCS (mean clinical score) / PP (mean peak paralysis score): short term.

Marks after values point to notes of the source that are not given here.

PDI, sequence (P07237 18-508, species assumed): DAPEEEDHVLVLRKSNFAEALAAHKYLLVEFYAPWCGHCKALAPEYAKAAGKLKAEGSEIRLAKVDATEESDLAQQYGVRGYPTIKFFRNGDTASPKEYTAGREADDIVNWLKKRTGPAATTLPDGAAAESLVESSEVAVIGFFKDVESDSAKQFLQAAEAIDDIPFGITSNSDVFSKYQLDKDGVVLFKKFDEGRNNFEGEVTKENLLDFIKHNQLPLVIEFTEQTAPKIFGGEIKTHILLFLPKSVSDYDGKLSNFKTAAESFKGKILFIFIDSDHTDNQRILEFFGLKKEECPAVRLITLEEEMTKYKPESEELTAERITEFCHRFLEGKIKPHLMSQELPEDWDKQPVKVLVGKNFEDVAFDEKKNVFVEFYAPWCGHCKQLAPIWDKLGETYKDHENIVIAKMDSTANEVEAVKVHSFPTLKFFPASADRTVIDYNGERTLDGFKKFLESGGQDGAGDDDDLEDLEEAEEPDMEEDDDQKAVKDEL

Regarding “GRVDPSNKSMPKDIA (scrPIF-1 (15)) [scrambled PIF]”, the “interaction with PDI target” value in series [1] is listed as “greatly reduced”.

Glatiramer acetate [GA]: the “total recovery from paraplegia (stage 4/5)” value in series [2] (episodic treatment) stood at 12.5%. Further, in series [2] (long-term, day 50), the “mice disease free at the end of the study” value is reported as 1/9 and the mice that died result is “three”. Further, in series [2] (medium term), the mice that died entry was “one” and the paralysis score result is given as “increased”. In addition, the “mice with paralysis reversed / disease free” value in series [2] (medium term, day 41) is recorded as 1/7. In addition, the “mice free of paralysis at the end of the first remission” value in series [2] (short term study) is “none”. In series [2] (Experiment 1), the “MCE (mean clinical score at end)” value is 1.3 +/− 0.4, the “MCS (mean clinical score)” value is recorded as 1.58 +/− 0.15 and the “PP (mean peak paralysis score)” value is listed as 2.4 +/− 0.4. In series [2] (Experiment 2), the “MCE (mean clinical score at end)” value is recorded as 0.8 +/− 0.2*, the “MCS (mean clinical score)” value was 1.4 +/− 0.27 and the “PP (mean peak paralysis score)” value is reported as 2.5 +/− 0.4.
